These results are taken from article PMC3390896, “The Distribution and Physiological Effects of the Myoinhibiting Peptides in the Kissing Bug, Rhodnius Prolixus” (Frontiers in Neuroscience, 2012).

Read-outs that look alike come from different tables or passages of the source. Where a SMILES comes first, the peptide text is derived from it. Bridges are numbered along the chain shown (N, C = ends). Where no end group is shown, it is not given here.

In one experiment the test system is R. prolixus hindgut. Nature of the experiment: R. prolixus hindgut contraction assay (spontaneous contractions, force transducer). More on the design: species or system Rhodnius prolixus. The following applies: mean of five to six preparations. The source says: Hindguts from female adult R. prolixus were dissected under R. prolixus saline, leaving a small portion of the ventral cuticle attached to the posterior end. The preparation was placed in a shallow trough molded into a Sylgard-coated petri dish. The preparation was secured to the dish by pinning the cuticle using minuten pins. The anterior end of the hindgut was attached to an AE875 miniature force transducer (Aksjeselskapet Mikro-Elektronikk, Norway) using a strand of silk. Muscle activity was monitored on a linear flat-bed chart recorder connected to a force transducer through an amplifier. Isolated hindguts were maintained in 200 μL of saline at room temperature. Working concentrations of Rhopr-MIP-4 or Rhopr-MIP-7 were applied by removing 100 μL of saline and replacing it with the same volume of peptide that yielded final concentrations of 10^−11 to 10^−6 M. The peptides were washed from the preparation using saline between trials. The effects of the peptides on hindgut contractions were monitored over a 5 min time period.
Responses to Rhopr-MIP-4 and Rhopr-MIP-7 were quantified by dividing the frequency of contractions during the second minute after application, by the frequency of contractions during the 1 min interval prior to peptide application.

Experiment [1] has as its target T1, Drosophila melanogaster sex peptide receptor (Drome-SPR) (Drosophila melanogaster, UniProt Q8SWR3).
T1 construct: expressed in transfected cells; host or cells: CHO-WTA11 cells (expressing apoaequorin and Gα16)
T1 sequence (Q8SWR3 1-435): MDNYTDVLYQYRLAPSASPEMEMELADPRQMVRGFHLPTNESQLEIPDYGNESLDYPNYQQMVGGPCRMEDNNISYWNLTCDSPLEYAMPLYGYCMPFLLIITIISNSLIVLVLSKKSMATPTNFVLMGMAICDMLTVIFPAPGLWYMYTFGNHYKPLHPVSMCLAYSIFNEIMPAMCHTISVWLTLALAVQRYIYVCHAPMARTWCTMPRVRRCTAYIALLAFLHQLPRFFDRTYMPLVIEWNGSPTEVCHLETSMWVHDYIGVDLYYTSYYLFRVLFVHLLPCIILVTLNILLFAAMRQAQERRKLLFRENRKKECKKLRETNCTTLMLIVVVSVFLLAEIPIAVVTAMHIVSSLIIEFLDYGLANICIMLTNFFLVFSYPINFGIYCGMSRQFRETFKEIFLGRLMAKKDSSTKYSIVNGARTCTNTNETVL
Nature of the experiment: Functional aequorin-based Drome-SPR assay in CHO-WTA11 cells. Format: cell-based. The following applies: CHO cells coexpressing aequorin, Gα16 and Drosophila SPR; aequorin luminescence; three independent measurements done in triplicate. As for the experimental part: Drome-SPR expression vector (described by Poels et al., [2010]) transfected and mock transfected (negative control) CHO-WTA11 cells (expressing apoaequorin and Gα16) were grown until 90% confluency, detached using PBS with 100 μM EDTA, spun (6 min, 150 g) and resuspended at 5 × 10^6 cells/mL in D-MEM/F-12 without phenol red supplemented with 0.1% BSA. “Coelenterazine h” (Invitrogen) was added to a concentration of 5 μM and the cells were incubated in the dark at room temperature for 3–4 h. After coelenterazine loading, cells were diluted 10-fold and incubated for 30 min. Test compounds were dissolved in 50 μL D-MEM/F-12 supplemented with 0.1% BSA and dispensed in triplicate into the wells of a white 96-well plate. Light emission was recorded (Mithras LB940, Berthold) for 30 s immediately after injection of 50 μL cell suspension into each well. Cells were then lysed by a second injection of 50 μL 0.3% Triton X-100 and monitored during 8 s. Data were collected using MikroWin2000 (Mikrotek Laborsysteme Gmbh).

The test system of the next experiment is L. migratoria hindgut. The following applies: ref Schoofs et al., [1991]; cited from earlier work. An excerpt:
As shown in many insects (and as indicated by their name) MIPs are inhibitory of visceral muscle contraction. Thus, in R. prolixus, MIPs inhibit contractions of the hindgut in a dose-dependent manner. This is true for Rhopr-MIP-4 and for Rhopr-MIP-7. […] The thresholds for these Rhopr-MIPs were approximately the same. These threshold concentrations are lower than the threshold concentrations determined for the suppression of hindgut muscle contractions in L. migrator ...

The target of experiment [2] is T1, Drosophila melanogaster sex peptide receptor (Drome-SPR). More on the design: method as in Poels et al., [2010]. As to conditions: same aequorin assay; ref Poels et al., [2010]; cited from earlier work. As for the experimental part: The activity profiles of Rhopr-MIP-4 and -7 were tested in the functional aequorin-based Drome-SPR assays (Figure 5).
The mark [3] stands for this setting: frequency in second minute after application divided by frequency in 1 min before, read-out: IC50 for frequency of spontaneous hindgut contractions.
The mark [4] stands for this setting: isolated hindgut of female adult R. prolixus, saline, room temperature, read-out: IC50 for amplitude of spontaneous hindgut contractions.

What is called IC50 is the point on the concentration scale where inhibition reaches its midpoint. A word on the EC50: it is the midpoint of the concentration-response curve. In the case of `CC(C)C[C@H](NC(=O)[C@H](CC(=O)O)NC(=O)[C@H](CO)NC(=O)[C@H](Cc1c[nH]c2ccccc12)NC(=O)[C@H](C)N)C(=O)N[C@@H](CCC(N)=O)C(=O)N[C@@H](CO)C(=O)N[C@@H](CO)C(=O)NCC(=O)N[C@@H](Cc1c[nH]c2ccccc12)C(N)=O` [Rhopr-MIP-4] (H-AWSDLQSSGW-NH2), the IC50 with R. prolixus hindgut (setting [3]) was roughly 20 nM; in the experiment with R. prolixus hindgut (setting [4]), roughly 10 nM. For the same compound, in experiment [1], the EC50 came out at 53 nM.

As to `CC(C)C[C@H](NC(=O)[C@H](CO)NC(=O)[C@H](CC(N)=O)NC(=O)[C@H](Cc1c[nH]c2ccccc12)NC(=O)[C@H](C)N)C(=O)N[C@@H](Cc1c[nH]cn1)C(=O)NCC(=O)NCC(=O)N[C@@H](Cc1c[nH]c2ccccc12)C(N)=O` [Rhopr-MIP-7] (H-AWNSLHGGW-NH2), the IC50 in the experiment on R. prolixus hindgut (setting [3]) is roughly 20 nM; in the experiment with R. prolixus hindgut (setting [4]), roughly 100 nM. The same compound came in with an EC50 in experiment [1] of 0.59 nM.

For AWQDLNAGW-NH2 [Lom-MIP], the “threshold concentration for suppression of hindgut muscle contractions” value in the experiment with L. migratoria hindgut is reported as 1.8 nM.

With “Drome-SP: Drosophila sex peptide, 36 amino acids with a core W(X8)W and a C-terminal disulfide bridge (WEWPWNRKPTKFPIPSPNPRDKWCRLNLGPAWGGRC; disulfide 24-36 (inferred); UniProt P05623 20-55, looked up)”, the half-maximal effective concentration (EC50) in experiment [2] is roughly 15 nM.
